Source: patent US11180452B2, “Methods and compositions for selectively inhibiting pathogenic microbes” (priority 2019, dated 2021)
In brackets after ≈: the same amount, converted by molar mass. Several values for one entry are separate records, joined by “and”; a condition that tells them apart may be missing. Identical values can stand only once. Like-named read-outs stand apart in the source and are kept apart here.

Tests used:
Bacillus subtilis = Bacillus subtilis MIC / MBC; format: cell-based; conditions: for MBC: Bacillus subtilis NRRL: B-571, minimum bactericidal concentration; for MIC: Bacillus subtilis, Bacillus subtilis (Ehrenberg 1835) Cohn 1872 NRRL: B-571, read-out: MIC
Bacillus thuringiensis = format: cell-based; conditions: Bacillus thuringiensis Berliner ATCC: 10792; for MIC: Bacillus thuringiensis, read-out: MIC
[1] = tested on: Burkholderia thailandensis Brett et al ATCC: 700388; test: microbe, parasite or virus in culture; format: cell-based
Candida glabrata = Candida glabrata MIC / MFC; format: cell-based; conditions: Nakaseomyces glabratus, Candida glabrata #584 (Table 2); for MIC: read-out: MIC
[2] = tested on: Francisella tularensis subsp. Holarctica Strain LVSR NR-597; test: microbe, parasite or virus in culture; format: cell-based
[3] = tested on: Francisella tularensis strains; test: microbe, parasite or virus in culture; format: cell-based
[4] = Toxicity in mice, body weight over 7 days; format: in vivo, Balb/c mice; conditions: for Animal body weight (kg) Day 0 / Animal body weight (kg) Day 1 / Animal body weight (kg) Day 2 / Animal body weight (kg) Day 3 / Animal body weight (kg) Day 4 / Animal body weight (kg) Day 5 / Animal body weight (kg) Day 6 / Animal body weight (kg) Day 7: mice, IP; for Animal body weight (kg) Day 0: Day 0, individual animals; for Animal body weight (kg) Day 1: Day 1, individual animals; for Animal body weight (kg) Day 2: Day 2, individual animals; for Animal body weight (kg) Day 3: Day 3, individual animals; for Animal body weight (kg) Day 4: Day 4, individual animals; for Animal body weight (kg) Day 5: Day 5, individual animals; for Animal body weight (kg) Day 6: Day 6, individual animals; for Animal body weight (kg) Day 7: Day 7, individual animals
From the text: The vehicle is 40% PEG300 solution in 0.9% NaCl. […] Thus, the compounds are useful for in vivo antimicrobial administration.

[5] = read-out: F. tularensis BSL-3 MIC, Strain 100
[6] = read-out: F. tularensis BSL-3 MIC, strain HN-63
[7] = read-out: F. tularensis BSL-3 MIC, strain LVS
[8] = read-out: F. tularensis BSL-3 MIC, strain MA00-2987
[9] = read-out: F. tularensis BSL-3 MIC, strain MO #1
[10] = read-out: F. tularensis BSL-3 MIC, strain MO #2
[11] = read-out: F. tularensis BSL-3 MIC, strain MO #3
[12] = read-out: F. tularensis BSL-3 MIC, strain OR-96
[13] = read-out: F. tularensis BSL-3 MIC, strain SCHU S4
[14] = read-out: F. tularensis BSL-3 MIC, strain WY-96
[15] = read-out: MAX, highest MIC over the Francisella tularensis strains
[16] = read-out: MIN, lowest MIC over the Francisella tularensis strains

For `Cc1[nH]c2ccc(O)cc2c1Sc1ccccc1N` [Compound 174AK, 3-((2-aminophenyl)thio)-2-methyl-1H-indol-5-ol], the MBC (Bacillus subtilis) was > 50 µg/mL, the MIC (Bacillus subtilis) was 50 µg/mL (≈ 185 µM) and the MIC (Bacillus thuringiensis) was > 50 µg/mL. For the same compound, the MIC [1] was > 50 µg/mL and the MIC (Candida glabrata) was > 50 µg/mL.
With `Brc1ccc(Sc2cnc3ccccn23)cc1` [Compound 174AN, 3-((4-bromophenyl)thio)imidazo[1,2-a]pyridine] the MIC (Bacillus subtilis) was 16 µg/mL (≈ 52.4 µM) and the MIC (Candida glabrata) was 50 µg/mL (≈ 164 µM).
In the case of `Cc1[nH]c2ccc(O)cc2c1Sc1ccccc1O` [Compound 174AO, 3-((2-hydroxyphenyl)thio)-2-methyl-1H-indol-5-ol], the MIC (Bacillus subtilis) is reported as 50 µg/mL (≈ 184 µM), the MIC (Candida glabrata) is reported as > 50 µg/mL and the MIC [2] is reported as 50 µg/mL (≈ 184 µM).
With `Oc1ccc2[nH]cc(Sc3ccccc3O)c2c1` [Compound 174AP, 3-((2-hydroxyphenyl)thio)-1H-indol-5-ol] the MIC (Bacillus subtilis) was 50 µg/mL (≈ 194 µM), the MIC (Candida glabrata) was > 50 µg/mL and the MIC [2] was 50 µg/mL (≈ 194 µM).
Compound `COc1ccc2[nH]cc(Sc3ccccc3O)c2c1` [Compound 174AQ, 2-((5-methoxy-1H-indol-3-yl)thio)phenol] has an MIC (Bacillus subtilis) of 32 µg/mL (≈ 118 µM), an MIC (Candida glabrata) of 50 µg/mL (≈ 184 µM) and an MIC [2] of 16 µg/mL (≈ 59 µM).
With `Oc1ccc2[nH]cc(Sc3ccccc3Br)c2c1` [Compound 174AR, 3-((2-bromophenyl)thio)-1H-indol-5-ol] the MIC (Bacillus subtilis) was 8 µg/mL (≈ 25 µM), the MIC (Candida glabrata) was 50 µg/mL (≈ 156 µM) and the MIC [2] was 4 µg/mL (≈ 12.5 µM).
In the case of `COc1ccc2[nH]cc(Sc3ccccc3Br)c2c1` [Compound 174AS, 3-((2-bromophenyl)thio)-5-methoxy-1H-indole], the MIC (Bacillus subtilis) is reported as 2 µg/mL (≈ 5.98 µM), the MIC (Candida glabrata) is reported as > 50 µg/mL and the MIC [2] is reported as 1 µg/mL (≈ 2.99 µM).
Work on `OCc1ccccc1Sc1c[nH]c2ccc(Br)cc12` [Compound 174AT, (2-((5-bromo-1H-indol-3-yl)thio)phenyl)methanol] yielded an MBC (Bacillus subtilis) of 16 µg/mL (≈ 47.9 µM), an MIC (Bacillus subtilis) of 8 µg/mL (≈ 23.9 µM) and an MBC (Bacillus thuringiensis) of 16 µg/mL (≈ 47.9 µM). It also gave an MIC (Bacillus thuringiensis) of 8 µg/mL (≈ 23.9 µM), an MIC (Candida glabrata) of 50 µg/mL (≈ 150 µM) and an MIC [2] of 8 µg/mL (≈ 23.9 µM).
For `Fc1ccccc1Sc1c[nH]c2ccc(Br)cc12` [Compound 174AU, 5-bromo-3-((2-fluorophenyl)thio)-1H-indole], the MBC (Bacillus subtilis) was 2 µg/mL (≈ 6.21 µM), the MIC (Bacillus subtilis) was 1 µg/mL (≈ 3.1 µM) and the MBC (Bacillus thuringiensis) was 2 µg/mL (≈ 6.21 µM). It also gave an MIC (Bacillus thuringiensis) of 1 µg/mL (≈ 3.1 µM), an MFC (Candida glabrata; minimum fungicidal concentration, read-out: MFC) of 50 µg/mL (≈ 155 µM) and an MIC (Candida glabrata) of 3.13 µg/mL (≈ 9.71 µM). It also gave an MIC [2] of 0.25 µg/mL (≈ 0.776 µM), an MIC50 [3] of 2 µg/mL (≈ 6.21 µM) and an MIC [3, 5] of 8 µg/mL (≈ 24.8 µM). It also gave an MIC [3, 6] of 2 µg/mL (≈ 6.21 µM), an MIC [3, 7] of 2 µg/mL (≈ 6.21 µM) and an MIC [3, 8] of 2 µg/mL (≈ 6.21 µM). For the same compound, the MIC [3, 9] was 1.83 µg/mL (≈ 5.68 µM), the MIC [3, 10] was 1.67 µg/mL (≈ 5.18 µM) and the MIC [3, 11] was 2 µg/mL (≈ 6.21 µM). The MIC [3, 12] was 4 µg/mL (≈ 12.4 µM), the MIC [3, 13] was 4 µg/mL (≈ 12.4 µM) and the MIC [3, 14] was 1.5 µg/mL (≈ 4.66 µM). The MIC [3, 15] was 8 µg/mL (≈ 24.8 µM), the MIC [3, 16] was 1.5 µg/mL (≈ 4.66 µM) and the “toxicity in mice by body weight” value ([4]; 6-week-old Balb/c mice, body weight over 7 days, vehicle 40% PEG300 in 0.9% NaCl) was “did not have significant toxicity”. The “Animal body weight (kg) Day 0” value ([4]; 0.1 mg/kg, 0.1 mg/kg) was 0.026 kg and 0.023 kg and 0.024 kg, the “Animal body weight (kg) Day 1” value ([4]; 0.1 mg/kg, 0.1 mg/kg) was 0.024 kg and 0.022 kg and 0.023 kg and the “Animal body weight (kg) Day 2” value ([4]; 0.1 mg/kg, 0.1 mg/kg) was 0.025 kg and 0.022 kg and 0.023 kg. For the same compound, the “Animal body weight (kg) Day 3” value ([4]; 0.1 mg/kg, 0.1 mg/kg) was 0.025 kg and 0.022 kg and 0.023 kg, the “Animal body weight (kg) Day 4” value ([4]; 0.1 mg/kg, 0.1 mg/kg) was 0.025 kg and 0.022 kg and 0.023 kg and the “Animal body weight (kg) Day 5” value ([4]; 0.1 mg/kg, 0.1 mg/kg) was 0.025 kg and 0.023 kg and 0.024 kg. For the same compound, the “Animal body weight (kg) Day 6” value ([4]; 0.1 mg/kg, 0.1 mg/kg) was 0.025 kg and 0.022 kg and 0.023 kg, the “Animal body weight (kg) Day 7” value ([4]; 0.1 mg/kg, 0.1 mg/kg) was 0.024 kg and 0.022 kg and 0.023 kg and the “Animal body weight (kg) Day 0” value ([4]; 1 mg/kg, 1 mg/kg) was 0.026 kg and 0.022 kg and 0.025 kg. For the same compound, the “Animal body weight (kg) Day 1” value ([4]; 1 mg/kg, 1 mg/kg) was 0.025 kg (2×) and 0.022 kg, the “Animal body weight (kg) Day 2” value ([4]; 1 mg/kg, 1 mg/kg) was 0.026 kg and 0.022 kg and 0.025 kg and the “Animal body weight (kg) Day 3” value ([4]; 1 mg/kg, 1 mg/kg) was 0.026 kg and 0.022 kg and 0.025 kg. The “Animal body weight (kg) Day 4” value ([4]; 1 mg/kg, 1 mg/kg) was 0.026 kg and 0.023 kg and 0.025 kg, the “Animal body weight (kg) Day 5” value ([4]; 1 mg/kg, 1 mg/kg) was 0.026 kg and 0.023 kg and 0.025 kg and the “Animal body weight (kg) Day 6” value ([4]; 1 mg/kg, 1 mg/kg) was 0.025 kg (2×) and 0.023 kg. For the same compound, the “Animal body weight (kg) Day 7” value ([4]; 1 mg/kg, 1 mg/kg) was 0.026 kg and 0.024 kg and 0.025 kg, the “Animal body weight (kg) Day 0” value ([4]; 10 mg/kg, 10 mg/kg) was 0.024 kg (2×) and 0.025 kg and the “Animal body weight (kg) Day 1” value ([4]; 10 mg/kg, 10 mg/kg) was 0.023 kg (2×) and 0.024 kg. The “Animal body weight (kg) Day 2” value ([4]; 10 mg/kg, 10 mg/kg) was 0.023 kg (2×) and 0.025 kg, the “Animal body weight (kg) Day 3” value ([4]; 10 mg/kg, 10 mg/kg) was 0.024 kg and 0.023 kg and 0.025 kg and the “Animal body weight (kg) Day 4” value ([4]; 10 mg/kg, 10 mg/kg) was 0.023 kg (2×) and 0.025 kg. The “Animal body weight (kg) Day 5” value ([4]; 10 mg/kg, 10 mg/kg) was 0.023 kg (2×) and 0.026 kg, the “Animal body weight (kg) Day 6” value ([4]; 10 mg/kg, 10 mg/kg) was 0.022 kg and 0.023 kg and 0.026 kg and the “Animal body weight (kg) Day 7” value ([4]; 10 mg/kg, 10 mg/kg) was 0.022 kg and 0.023 kg and 0.026 kg.
For `Cc1ccccc1Sc1c[nH]c2ccc(Br)cc12` [Compound 174AY, 5-bromo-3-(o-tolylthio)-1H-indole], the MBC (Bacillus subtilis) was 2 µg/mL (≈ 6.28 µM), the MIC (Bacillus subtilis) was 1 µg/mL (≈ 3.14 µM) and the MBC (Bacillus thuringiensis) was 4 µg/mL (≈ 12.6 µM). The MIC (Bacillus thuringiensis) was 2 µg/mL (≈ 6.28 µM), the MIC [2] was 1 µg/mL (≈ 3.14 µM) and the MIC50 [3] was 3.83 µg/mL (≈ 12 µM). The MIC [3, 5] was 4 µg/mL (≈ 12.6 µM), the MIC [3, 6] was 2 µg/mL (≈ 6.28 µM) and the MIC [3, 7] was 4 µg/mL (≈ 12.6 µM). For the same compound, the MIC [3, 8] was 3.67 µg/mL (≈ 11.5 µM), the MIC [3, 9] was 2 µg/mL (≈ 6.28 µM) and the MIC [3, 10] was 3.33 µg/mL (≈ 10.5 µM). It also gave an MIC [3, 11] of 3.67 µg/mL (≈ 11.5 µM), an MIC [3, 12] of 4 µg/mL (≈ 12.6 µM) and an MIC [3, 13] of 4 µg/mL (≈ 12.6 µM). It also gave an MIC [3, 14] of 4 µg/mL (≈ 12.6 µM), an MIC [3, 15] of 4 µg/mL (≈ 12.6 µM) and an MIC [3, 16] of 2 µg/mL (≈ 6.28 µM).
